Common to all, as to format: physicochemical
Data set [1] in a line: Destruction test: impurities in raw materials before destruction (HPLC). The note with it: for Total impurities in raw materials before destruction: HPLC peak area normalization. From the text:
The methods of destruction experiment of the Polymorph I of this invention (hereinafter referred to as “Polymorph I”) contrasting with the Polymorph A and B of 3-(4-amino-1-oxo-1,3-dihydro-2H-isoindole-2-yl)-piperidine-2,6-dione prepared by the method in CN 1871003A (hereinafter referred to as “Polymorph A” and “polymorph B”) and results of stability are followed:
(§1) HPLC conditions and system applicability: octadecylsilane bonded silica as the filler; 0.01 mol/L of potassium dihydrogen phosphate (adjusted to pH 3.5 by phosphoric acid)-methanol-acetonitrile (80:15:5) as the mobile phase; detection wavelength was 240 nm; the number of theoretical plates should be not less than 2000, calculated according to the peak of lenalidomide. The resolution of the peak of 3-(4-amino-1-oxo-1,3-dihydro-2H-isoindole-2-yl)-piperidine-2,6-dione from the peaks of adjacent impurities should meet requirements.
(§2) Determination method: sample was dissolved in mobile phase to be the solution containing 0.5 mg per 1 mL. 20 μL of such solution was injected into liquid chromatograph and chromatogram was recorded until fourfold the retention time of major component peak. If there were impurities peaks in the chromatogram of sample solution, total impurities and sole impurity were calculated by normalization method on the basis of peak area.

Data set [2] is described as follows: Oxidation destruction (30% H2O2), related substances by HPLC. The note with it: for Major impurity, peak tR5.649-5.660 / Major impurity, peak tR10.372-10.401 / Major impurity, peak tR32.279-32.318 / Major impurity, peak tR35.063-35.098 / Total impurities generated by oxidation destruction: 30% H2O2, room temperature, 2 hour; for Chemical stability (in words): oxidating condition / oxidation destroy experiment. Here is the method: Oxidation destruction: 50 mg of sample weighted accurately was added into measuring flask of 100 mL, and 10 mL 30% H2O2 was added. After standing at room temperature for 2 hour, the mixture was diluted with mobile phase to scale and shook to be homogeneous, and determined by HPLC.
as §1, §2

Data set [3] can be described thus: Acid destruction (0.1 mol/L HCl), related substances by HPLC. The note with it: for Major impurity, peak tR4.717-4.737 / Major impurity, peak tR7.367-7.381 / Major impurity, peak tR11.067-11.100 / Total impurities generated by 0.1 mol/L acid destruction for 1 hour: 0.1 mol/L HCl, room temperature, 1 hour; for Chemical stability (in words): acid condition / 0.1 mol/L diluted HCl solution. Here is the method: Acid destruction: 50 mg of sample weighted accurately was added into measuring flask of 100 mL, and 10 mL 0.1 mol/L HCl solution was added. After standing at room temperature for 1 hour, an equal amount of 0.1 mol/L NaOH solution was added for neutralization. Then the mixture was diluted with mobile phase to scale and shook to be homogeneous, and determined by HPLC.
as §1, §2

On to `Nc1cccc2c1CN(C1CCC(=O)NC1=O)C2=O` (single isomer, unassigned) [Polymorph A, 3-(4-amino-1-oxo-1,3-dihydro-2H-isoindole-2-yl)-piperidine-2,6-dione], for which, in data set [1], the “Major impurity, peak tR5.872-5.948” value is 0.01%; the “Major impurity, peak tR6.847-6.855” value stood at 0.01%; the “Major impurity, peak tR10.961-11.165” value stood at 0.04%; the “Total impurities in raw materials before destruction” value is reported as “impurities: 0.06%”. Also, in data set [2], the “Major impurity, peak tR5.649-5.660” value was 0.39%; the “Major impurity, peak tR10.372-10.401” value is 0.08%; the “Major impurity, peak tR32.279-32.318” value stood at 0.08%; the “Major impurity, peak tR35.063-35.098” value was found to be 0.14%. In data set [2], the “Total impurities generated by oxidation destruction” value is “impurities: 0.82%” and the “Chemical stability (in words)” value is on record as “poor chemical stability”. In addition, in data set [3], the “Major impurity, peak tR4.717-4.737” value was 0.33%; the “Major impurity, peak tR7.367-7.381” value stood at 0.72%; the “Major impurity, peak tR11.067-11.100” value stood at 0.04%; the “Total impurities generated by 0.1 mol/L acid destruction for 1 hour” value is “impurities: 1.13%”. For the same compound, in data set [3], the “Chemical stability (in words)” value was “poor chemical stability”.

As to `Nc1cccc2c1CN(C1CCC(=O)NC1=O)C2=O` (single isomer, unassigned) [Polymorph B, 3-(4-amino-1-oxo-1,3-dihydro-2H-isoindole-2-yl)-piperidine-2,6-dione], in data set [1], the “Major impurity, peak tR5.872-5.948” value was 0.01%; the “Major impurity, peak tR6.847-6.855” value was determined as 0.01%; the “Major impurity, peak tR10.961-11.165” value was found to be 0.05%; the “Total impurities in raw materials before destruction” value is reported as “impurities: 0.07%”. Moreover, in data set [2], the “Major impurity, peak tR5.649-5.660” value is 0.36%; the “Major impurity, peak tR10.372-10.401” value is on record as 0.11%; the “Major impurity, peak tR32.279-32.318” value amounted to 0.10%; the “Major impurity, peak tR35.063-35.098” value is 0.13%. For the same compound, in data set [2], the “Total impurities generated by oxidation destruction” value was “impurities: 0.89%” and the “Chemical stability (in words)” value is “poor chemical stability”. In addition, in data set [3], the “Major impurity, peak tR4.717-4.737” value stood at 0.33%; the “Major impurity, peak tR7.367-7.381” value is given as 0.72%; the “Major impurity, peak tR11.067-11.100” value is listed as 0.04%; the “Total impurities generated by 0.1 mol/L acid destruction for 1 hour” value is “impurities: 1.22%”. Besides, in data set [3], the “Chemical stability (in words)” value is on record as “poor chemical stability”.

For the origin of these results see patent US9101620B2, “Polymorph of 3-(substituteddihydroisoindolinone-2-yl)-2,6-dioxopiperidine, and pharmaceutical compositions thereof” (Nanjing Cavendish Bio-Engineering Technology Co., Ltd., priority 2009, dated 2015).
